Reference: patent US20250151740A1, “COMPOSITION FOR PREVENTING FUNGAL SPOILAGE IN POST-HARVEST FRUITS, VEGETABLES AND FLOWERS, METHOD AND USE THEREOF” (BIOBAB R&D, S.L., priority 2022, published 2025)
Entries after “also recorded” stand apart in the source; their conditions may differ.

Key:
cherries = assay: In vivo test on cherries with controlled release diffuser; conditions: diffuser with 50 μl, 20° C., darkness, 6 days; control approximately 23%
Method: Mature cherries were brought directly from Spanish farm and sent to laboratory within 24 hours. The cherries were divided into two equal groups and each group of cherries was placed in a plate.
(§1) One group of cherries were not exposed to any product (control) and another group of cherries were exposed to a controlled release diffuser that contains the composition of the present invention. The controlled release diffuser was prepared using cellulose sheets (0.2 cm thick) in pieces (2×1 cm) and impregnated with 50 μl of pure β-cyclocitral (β-CC). These sheets were inserted into polyethylene bags (3×3 cm) that were subsequently heat-sealed.
The diffuser was placed in the bottom of one plate. The two plates were covered with a plastic bag to keep inside a homogeneous atmosphere. Boxes were kept in an acclimated chamber (20° C., darkness) for 6 days.
Finally, the cherries (control and exposed to the composition) were separate into two groups: fruits able to consume (not sign of fungi) and fruits not able to consume (signs of fungi).

Monilinia sp = assay: Vapor-agar contact method, colony diameter; type: cell-based
Method: (§2) The fungi grown on strawberries was isolated and cultured on potato dextrose agar (PDA, Condalab, Madrid Spain) The fungus was identified as Monilinia sp.
Antifungal activity was determined by the vapor-agar contact method previously described by Sekiyama et al.. Fungi were cultured on potato dextrose agar (PDA) medium at 27° C. for a week. Fungal spores were then inoculated in the center of PDA plates which were aseptically placed in a chamber without lids.
A controlled release diffuser as described in examples 1 and 2 was used. In this example 3 doses of β-cyclocitral (β-CC) were used: 20, 50 and 100 μL.
The diffusers were introduced into the chambers, 6 cm far from the PDA plate, followed by proper sealing. Incubation in the chambers was performed at 27° C. for 3-5 days. The inhibitory activity was evaluated by measuring the diameter of colonies formed by the tested fungal strains. The minimum inhibitory dose (MID) was defined as the lowest concentration (mg/L in air) of volatile compounds which inhibited colony formation of test fungi by 50%.

Monilinia sp. = assay: Compartment PDA plate, β-CC and eucalyptol on cellulose, mycelium growth inhibition; type: cell-based; conditions: 25 μl of the single substance, 27° C., 3-5 days
Method: as §2
(§3) Fungal spores were then inoculated in the center of the compartment with PDA (40 mm diameter) and a small piece of cellulose with different volume of β-cyclocitral (β-CC) (composition of the present invention) and Eucalyptol was placed in one of the empty compartments. The plates were incubated at 27° C. for 3-5 days and the growth area of the mycelium and % of inhibition was measured.

Colletotrichum = assay: Vapor-agar contact method (modified, three-compartment petri dish); type: cell-based; conditions: 50 μL, 27° C., 3-5 days
Method: (§4) Inhibitory effects on the spore germination of other filamentous fungi, specifically Phytophtera nicotiana, Taphrina deformans, Colletotrichum and Rhizopus sp., were examined by the vapor-agar contact method described in example 1 with a slight modification as follows. Fungi were cultured on potato dextrose agar (PDA) medium at 27° C. for a week. It was used petri dish with three compartment, one compartment was filled out with PDA and another two was kept empty,
as §3, with “50 μL” for “different volume”, “invention)” for “invention) and Eucalyptol”

Taphrina deformans = assay: as above; type: cell-based; conditions: 50 μL, 27° C., 3-5 days
Method: as §4
as §3, with “50 μL” for “different volume”, “invention)” for “invention) and Eucalyptol”

Phytophtera nicotiana = assay: as above; type: cell-based; conditions: 50 μL; stated in text for all fungi of the example
Method: as §4
as §3, with “50 μL” for “different volume”, “invention)” for “invention) and Eucalyptol”

Rhizopus sp. = assay: as above; type: cell-based; conditions: 50 μL
Method: as §4
as §3, with “50 μL” for “different volume”, “invention)” for “invention) and Eucalyptol”

roses = assay: In vivo test on roses with controlled release diffuser; conditions: diffuser with 50 μL, 20° C., darkness, approx. 7 days, versus control
Method: Roses were brought directly from local market and sent to laboratory within 12 hours. The roses were divided into two equal groups and each group of roses was placed in a jar filled with tap water.
as §1, with “roses” for “cherries”, “μL” for “μl”
The diffuser was place in the middle of jar from 20 cm to the surface of the petals. The two jars were covered with a plastic bag to keep inside a homogeneous atmosphere. jars were kept in an acclimated chamber (20° C., darkness) until the symptoms of fungi degradation (approx. 7 days).

strawberries = assay: In vivo test on strawberries with controlled release diffuser; conditions: diffuser with 50 μL, 20° C., darkness, approx. 7 days, versus control; listed as composition of the present invention
Method: Mature strawberries were brought directly from local market and sent to laboratory within 2 hours. The strawberries were divided into two equal groups and each group of strawberries was placed in a box.
as §1, with “strawberries” for “cherries”, “μL” for “μl”
The diffuser was place in the middle of one box from 10 cm to the surface of strawberries. The two boxes were covered with a plastic bag to keep inside a homogeneous atmosphere. Boxes were kept in an acclimated chamber (20° C., darkness) until the symptoms of fungi degradation (approx. 7 days).

## CC1=C(C=O)C(C)(C)CCC1 [β-CC, beta-cyclocitral]
cherries
  cherries suitable for consumption: approximately 65%
Monilinia sp; concentrations higher than 50 μL
  inhibition: more than 60%
Monilinia sp; concentrations of 100 μL
  inhibition: 80-100%
Monilinia sp; from linear model y=1.01X+4.2047, doses 20, 50 and 100 μL, 27° C., 3-5 days
  doses that inhibit 50% of mycelium fungi (MID): 45.34 µL
Monilinia sp.
  % Inhibition: 78.22%
Colletotrichum
  % Inhibition: 99.00%
  Growth area: 6.15 cm^2
Taphrina deformans
  % Inhibition: 100%
  Growth area: 0 cm^2
Phytophtera nicotiana
  growth inhibition: 100%
Rhizopus sp.; 27° C., 3-5 days
  % Inhibition: 62.55%
  Growth area: 1.45 cm^2
Rhizopus sp.; versus control
  effect on spore germination (FIG. 3): inhibitory effect on the spore germination
roses
  spots on roses: less spots
strawberries
  rot / fungi contamination of strawberries: less fungi contamination; also recorded: less rot
